≈ marks a conversion by molar mass, not a printed value.

Consider three molecules from patent US20250019385A1, “SPIROCYCLIC ANNULATED 2-AMINO-3-CYANO THIOPHENES AND DERIVATIVES FOR THE TREATMENT OF CANCER” (Boehringer Ingelheim International GmbH, priority 2023, published 2025).

Chain of KRAS (G12D)::SOS1 protein-protein interaction (P01116 other isoform, or with tags, fused parts or gaps G12D): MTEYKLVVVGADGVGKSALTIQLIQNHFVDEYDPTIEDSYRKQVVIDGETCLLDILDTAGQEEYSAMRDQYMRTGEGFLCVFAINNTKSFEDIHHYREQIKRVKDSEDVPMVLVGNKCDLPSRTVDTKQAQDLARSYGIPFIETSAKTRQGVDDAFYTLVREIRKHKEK

Test system in the first data set: not listed separately
The data set is described as follows: Plasma protein binding assay (PPB), equilibrium dialysis. The format is in vitro ADME. As to conditions: bovine, 10% FCS in PBS, read-out: PPB 10% FCS (% fu). How it is done:
Binding of test compounds to plasma was determined using equilibrium dialysis (ED) and quantitative mass spectrometry interfaced with liquid chromatography (LC-MS). In brief, ED was performed with dialysis devices consisting of two chambers separated by a semipermeable membrane with a molecular weight cut-off of 5-10 kg/mol. One chamber was filled with 10% FCS in PBS containing 1-10 μmol/L test compound and the other chamber was filled with phosphate-buffer saline (PBS) with or without dextran. The dialysis chamber was incubated for 3-5 hours at 37° C. After incubation, protein was precipitated from aliquots of each chamber and the concentration of test compound in the supernatant of the plasma-containing compartment (cserum) and of the buffer-containing compartment (cbuffer) was determined by LC-MS. The fraction of unbound test compound (not bound to plasma) (f) was calculated according to the following equation: […]
Turning to `C[C@H](Oc1nc(-c2noc3c2CCC[C@@]32CCCc3sc(N)c(C#N)c32)nc2c1CN(c1ncccn1)[C@@]21CCOC1)[C@@H]1CCCN1C` [II-7b], the fraction unbound stood at 0.05.
On the same count and under the same terms, then `C[C@H](Oc1nc(-c2noc3c2CCC[C@@]32CCCc3sc(N)c(C#N)c32)nc2c1cnn2[C@@H]1CCOC1)[C@@H]1CCCN1C` [II-4], with 0.1; and `COCCn1c(=O)n(C)c2c(O[C@@H](C)[C@@H]3CCCN3C)nc(-c3onc4c3CCC[C@@]43CCCc4sc(N)c(C#N)c43)nc21` [I-7], with 0.24.

Test system in a further data set: not listed separately
The data set is described as follows: Solubility measurement (DMSO solution precipitation method). The format is physicochemical. As to conditions: aqueous buffer, kinetic from dmso stock, McIlvaine buffer pH 4.5, 24 h, read-out: solubility pH 4.5. As to the method:
A 10 mM DMSO stock solution of a test compound is used to determine its aq. solubility. The DMSO solution is diluted with an aq. medium (McIlvaine buffer with pH=4.5 or 6.8) to a final concentration of 250 μM. After 24 h of shaking at ambient temperature a potentially formed precipitate is removed by filtration. The concentration of the test compound in the filtrate is determined by LC-UV methods by calibrating the signal to the signal of a reference solution with complete dissolution of the test compound in acetonitrile/water (1:1) with known concentration.
Consider `C[C@H](Oc1nc(-c2noc3c2CCC[C@@]32CCCc3sc(N)c(C#N)c32)nc2c1CN(c1ncccn1)[C@@]21CCOC1)[C@@H]1CCCN1C` [II-7b], for which the solubility at 24 h is 62 µg/mL (≈ 93.1 µM).
The same measure, in the same setting: then `C[C@H](Oc1nc(-c2noc3c2CCC[C@@]32CCCc3sc(N)c(C#N)c32)nc2c1cnn2[C@@H]1CCOC1)[C@@H]1CCCN1C` [II-4], with above 139 µg/mL; and `COCCn1c(=O)n(C)c2c(O[C@@H](C)[C@@H]3CCCN3C)nc(-c3onc4c3CCC[C@@]43CCCc4sc(N)c(C#N)c43)nc21` [I-7], with above 150 µg/mL.

The data set is the same for the next values; noted with them: aqueous buffer, kinetic from dmso stock, McIlvaine buffer pH 6.8, 24 h, read-out: solubility pH 6.8.
On to `C[C@H](Oc1nc(-c2noc3c2CCC[C@@]32CCCc3sc(N)c(C#N)c32)nc2c1CN(c1ncccn1)[C@@]21CCOC1)[C@@H]1CCCN1C` [II-7b], for which the solubility at 24 h stood at 23 µg/mL (≈ 34.5 µM).
Turning to `C[C@H](Oc1nc(-c2noc3c2CCC[C@@]32CCCc3sc(N)c(C#N)c32)nc2c1cnn2[C@@H]1CCOC1)[C@@H]1CCCN1C` [II-4], the solubility at 24 h is 104 µg/mL (≈ 173 µM).
Same read-out and setting: next, `COCCn1c(=O)n(C)c2c(O[C@@H](C)[C@@H]3CCCN3C)nc(-c3onc4c3CCC[C@@]43CCCc4sc(N)c(C#N)c43)nc21` [I-7]: above 147 µg/mL.

Another data set has as its target KRAS (G12D)::SOS1 protein-protein interaction (Homo sapiens (Human), UniProt P01116, G12D). The data set is described as follows: KRAS::SOS1 AlphaScreen binding assay (KRAS G12D). The conditions noted are these: GDP. From the text: This assay can be used to examine the potency with which compounds according to the invention binding to (mutated) KRAS inhibit the protein-protein interaction between SOS1 and (mutated) KRAS e.g. KRAS G12C, KRAS G12D. […] Low IC50 values in this assay setting are indicative of strong inhibition of protein-protein interaction between SOS1 and KRAS:
These assays measure the inhibitory effect of compounds on KRAS mutant protein-protein interactions using the Alpha Screen technology by Perkin Elmer.
The following (mutant) enzyme forms of KRAS and interacting proteins are used in these assays at the given concentrations:
KRAS (G12D) 1-169, N-terminal 6His-tag, C-terminal avi-tag (Xtal BioStructures, Inc.); final assay concentration 10 nM and SOS1 564-1049, N-terminal 229 GST-tag, TEV cleavage site (Viva Biotech Ltd); final assay concentration 5 nM;
Test compounds dissolved in DMSO are dispensed onto assay plates (Proxiplate 384 PLUS, white, PerkinElmer; 6008289) using an Access Labcyte Workstation with the Labcyte Echo 55x. For the chosen highest assay concentration of 100 μM, 150 nL of compound solution are transferred from a 10 mM DMSO compound stock solution. A series of eleven fivefold dilutions per compound are transferred to the assay plate, compound dilutions are tested in duplicates. DMSO are added as backfill to a total volume of 150 nL.
The assays run on a fully automated robotic system in a darkened room below 100 Lux. To 150 nl of compound dilution 10 μl of a mix including KRAS mutant protein, SOS1 (final assay concentrations see above) and GDP nucleotide (Sigma G7127; final assay concentration 10 μM) in assay buffer (1×PBS, 0.1% BSA, 0.05% Tween 20) are added into columns 1-24.
After 30 minutes incubation time 5 μl of Alpha Screen bead mix in assay buffer are added into columns 1-23. Bead mix consists of AlphaLISA Glutathione Acceptor Beads (PerkinElmer, Cat No AL109) and AlphaScreen Streptavidin Donor Beads (PerkinElmer Cat No 6760002) in assay buffer at a final assay concentration of 10 μg/mL each.
Plates are kept at room temperature in a darkened incubator. After an additional 60 minutes incubation time the signal is measured in a PerkinElmer Envision HTS Multilabel Reader using the AlphaScreen specs from PerkinElmer.
Each plate contains up to 16 wells of a negative control depending on the dilution procedure (platewise or serial) (DMSO instead of test compound; with KRAS mutant::SOS1 GOP mix and bead mix; column 23) and 16 wells of a positive control (DMSO instead of test compound; with KRAS mutant::SOS1 GOP mix w/o bead mix; column 24).
As internal control known inhibitors of KRAS mutant::SOS1 interaction can be measured on each compound plate.
IC50 values are calculated and analyzed with Boehringer Ingelheim's MEGALAB C50 application using a 4 parametric logistic model.
Tables of example compounds disclosed herein contain IC50 values determined using the above assays (see Table 43).
On to `C[C@H](Oc1nc(-c2noc3c2CCC[C@@]32CCCc3sc(N)c(C#N)c32)nc2c1CN(c1ncccn1)[C@@]21CCOC1)[C@@H]1CCCN1C` [II-7b], for which the IC50 amounted to 5 nM.
Take `C[C@H](Oc1nc(-c2noc3c2CCC[C@@]32CCCc3sc(N)c(C#N)c32)nc2c1cnn2[C@@H]1CCOC1)[C@@H]1CCCN1C` [II-4]: the IC50 turned out to be 1 nM.
Molecule `COCCn1c(=O)n(C)c2c(O[C@@H](C)[C@@H]3CCCN3C)nc(-c3onc4c3CCC[C@@]43CCCc4sc(N)c(C#N)c43)nc21` [I-7] gave an IC50 of 5 nM.

For another data set, the system named is LOVO cells. The data set is described as follows: LOVO CTG proliferation assay (120 h) (CRC, G13D). It is filed as cell-based. The conditions noted are these: Homo sapiens. As to the method: (§1) LOVO cells (ATCC No. CCL-229) are dispensed into black 384-well plates, flat and clear bottom (Greiner, PNr. 781091) at a density of 1000 cells per well in 60 μl DMEM (Sigma D6429)+10% FCS (fetal calf serum, HyClone, SH30084.03). Cells are incubated overnight at 37° C. in a humidified tissue culture incubator at 5% CO2. Compounds (10 mM stock in DMSO) are added at logarithmic dose series using the ECHO acoustic liquid handler system (Beckman Coulter), normalizing for added DMSO and including DMSO controls. All compound treatments are performed in technical duplicates. For the TO time point measurement, untreated cells are analyzed at the time of compound addition. Plates are incubated for 120 h, and cell viability is measured using CellTiter-Glo luminescent cell viability reagent (Promega product code G7570). Viability (stated as percent of control) is defined as relative luminescence units RLU of each well divided by the RLU of cells in DMSO controls. IC50 values are determined from viability measurements by non-linear regression using a four-parameter model.
(§2) IC50 values of representative compounds according to the invention measured with these assays in the indicated cell lines are presented in Table 46.
`C[C@H](Oc1nc(-c2noc3c2CCC[C@@]32CCCc3sc(N)c(C#N)c32)nc2c1CN(c1ncccn1)[C@@]21CCOC1)[C@@H]1CCCN1C` [II-7b] showed an IC50 of 130 nM.
Same read-out and setting: next, `C[C@H](Oc1nc(-c2noc3c2CCC[C@@]32CCCc3sc(N)c(C#N)c32)nc2c1cnn2[C@@H]1CCOC1)[C@@H]1CCCN1C` [II-4]: 24 nM.
Same read-out and setting: next, `COCCn1c(=O)n(C)c2c(O[C@@H](C)[C@@H]3CCCN3C)nc(-c3onc4c3CCC[C@@]43CCCc4sc(N)c(C#N)c43)nc21` [I-7]: 563 nM.

The subject of a further data set is NCI-H358 cells. The data set is described as follows: NCI-H358 CTG proliferation assay (120 h) (NSCLC, G12C). It is filed as cell-based. The conditions noted are these: Homo sapiens. As to the method:
as §1, with “NCI-H358” for “LOVO”, “CRL-5807)” for “CCL-229)”, “200” for “1000”, “RPMI-1640 ATCC-Formulation (Gibco #A10491)+10%” for “DMEM (Sigma D6429)+10%”, “serum).” for “serum, HyClone, SH30084.03).”
as §2
`C[C@H](Oc1nc(-c2noc3c2CCC[C@@]32CCCc3sc(N)c(C#N)c32)nc2c1CN(c1ncccn1)[C@@]21CCOC1)[C@@H]1CCCN1C` [II-7b] had an IC50 of 106 nM.
The same measure, in the same setting: then `C[C@H](Oc1nc(-c2noc3c2CCC[C@@]32CCCc3sc(N)c(C#N)c32)nc2c1cnn2[C@@H]1CCOC1)[C@@H]1CCCN1C` [II-4], with 35 nM.
On the same count and under the same terms, then `COCCn1c(=O)n(C)c2c(O[C@@H](C)[C@@H]3CCCN3C)nc(-c3onc4c3CCC[C@@]43CCCc4sc(N)c(C#N)c43)nc21` [I-7], with 124 nM.
